In patent US6737383B1, “Herbicidal oxadiazolidines” (priority 1999, dated 2004):

Assays:
wheat = test: Test B pre/postemergence wheat; format: in vivo, Triticum aestivum
How it was run: (§1)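 Herbicidal effect was estimated by eye on a ten-point control scale after plants spent twelve to sixteen days in a greenhouse following soil or foliar treatment. Foliar sprays targeted plants at one to four leaves; all doses were formulated in a non-phytotoxic solvent with surfactant.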

cocklebur = test: Test B pre/postemergence cocklebur; format: in vivo, Xanthium strumarium
How it was run: as §1

sugar beet = test: Test B pre/postemergence sugar beet; format: in vivo, Beta vulgaris
How it was run: as §1

giant foxtail = test: Test B pre/postemergence giant foxtail; format: in vivo, Setaria faberii
How it was run: as §1

crabgrass = test: Test B pre/postemergence crabgrass; format: in vivo, Digitaria sanguinalis
How it was run: as §1

blackgrass = test: Test B pre/postemergence blackgrass; format: in vivo, Alopecurus myosuroides
How it was run: as §1

rape = test: Test B pre/postemergence rape; format: in vivo, Brassica napus
How it was run: as §1

soybean = test: Test B pre/postemergence soybean; format: in vivo, Glycine max
How it was run: as §1

velvetleaf = test: Test B pre/postemergence velvetleaf; format: in vivo, Abutilon theophrasti
How it was run: as §1

surinam grass = test: Test B pre/postemergence surinam grass; format: in vivo, Brachiaria decumbens
How it was run: as §1

pigweed = test: Test B pre/postemergence pigweed; format: in vivo, Amaranthus retroflexus
How it was run: as §1

corn = test: Test B pre/postemergence corn; format: in vivo, Zea mays
How it was run: as §1

bedstraw = test: Test B pre/postemergence bedstraw; format: in vivo, Galium aparine; conditions: for Bedstraw plant response rating: 10 is complete control
How it was run: as §1

wild oat = test: Test B pre/postemergence wild oat; format: in vivo, Avena fatua
How it was run: as §1

purple nutsedge = test: Test B pre/postemergence purple nutsedge; format: in vivo, Cyperus rotundus
How it was run: as §1

morningglory = test: Test B pre/postemergence morningglory; format: in vivo, Ipomoea hederacea
How it was run: as §1

[1] = Postemergence, Rate 62 g/ha, scale of 0 to 10, 0 is no effect, 10 is complete control
[2] = Postemergence, Rate 125 g/ha, scale 0 to 10, 0 is no effect, 10 is complete control
[3] = Postemergence, Rate 500 g/ha, scale 0 to 10, 0 is no effect, 10 is complete control
[4] = Preemergence, Rate 62 g/ha, scale of 0 to 10 where 0 is no effect and 10 is complete control
[5] = Preemergence, Rate 125 g/ha, scale 0 to 10, 0 is no effect, 10 is complete control
[6] = Preemergence, Rate 500 g/ha, scale of 0 to 10 where 0 is no effect and 10 is complete control
[7] = Postemergence, Rate 250 g/ha, scale 0 to 10
[8] = Preemergence, Rate 250 g/ha, scale 0 to 10, 0 is no effect, 10 is complete control

## CC(C)=CCn1c(=O)on(C(=O)N(c2ccc(F)cc2F)C(C)C)c1=O [Compound 515]
wheat; [1]
  Wheat plant response rating: 0
wheat; [2]
  Wheat plant response rating: 0
wheat; [3]
  Plant response rating, Wheat: 0
wheat; [4]
  Plant response rating, Wheat: 0
wheat; [5]
  Wheat plant response rating: 0
wheat; [6]
  Wheat plant response rating: 7
cocklebur; [1]
  Cocklebur plant response rating: 0
cocklebur; [2]
  Cocklebur plant response rating: 3
cocklebur; [7]
  Cocklebur plant response rating: 3
cocklebur; [3]
  Plant response rating, Cocklebur: 5
cocklebur; [4]
  Plant response rating, Cocklebur: 0
cocklebur; [5]
  Cocklebur plant response rating: 0
cocklebur; [8]
  Cocklebur plant response rating: 0
cocklebur; [6]
  Cocklebur plant response rating: 0
Sugar beet; [1]
  Sugarbeets plant response rating: 3
Sugar beet; [2]
  Sugarbeets plant response rating: 3
Sugar beet; [3]
  Plant response rating, Sugarbeets: 3
Sugar beet; [4]
  Plant response rating, Sugarbeets: 0
Sugar beet; [5]
  Sugarbeets plant response rating: 4
Sugar beet; [6]
  Sugarbeets plant response rating: 7
Giant foxtail; [1]
  Giant foxtail plant response rating: 8
Giant foxtail; [2]
  Giant foxtail plant response rating: 9
Giant foxtail; [3]
  Plant response rating, Giant foxtail: 9
Giant foxtail; [4]
  Plant response rating, Giant foxtail: 10
Giant foxtail; [5]
  Giant foxtail plant response rating: 10
Giant foxtail; [6]
  Giant foxtail plant response rating: 10
crabgrass; [1]
  Crabgrass plant response rating: 4
crabgrass; [2]
  Crabgrass plant response rating: 8
crabgrass; [7]
  Crabgrass plant response rating: 9
crabgrass; [3]
  Plant response rating, Crabgrass: 9
crabgrass; [4]
  Plant response rating, Crabgrass: 6
crabgrass; [5]
  Crabgrass plant response rating: 7
crabgrass; [6]
  Crabgrass plant response rating: 9
blackgrass; [1]
  Blackgrass plant response rating: 0
blackgrass; [2]
  Blackgrass plant response rating: 0
blackgrass; [7]
  Blackgrass plant response rating: 0
blackgrass; [3]
  Plant response rating, Blackgrass: 1
blackgrass; [4]
  Plant response rating, Blackgrass: 3
blackgrass; [5]
  Blackgrass plant response rating: 5
blackgrass; [8]
  Blackgrass plant response rating: 5
blackgrass; [6]
  Blackgrass plant response rating: 8
rape; [1]
  Rape plant response rating: 4
rape; [2]
  Rape plant response rating: 4
rape; [3]
  Plant response rating, Rape: 6
rape; [4]
  Plant response rating, Rape: 0
rape; [5]
  Rape plant response rating: 4
rape; [6]
  Rape plant response rating: 10
soybean; [1]
  Soybean plant response rating: 4
soybean; [2]
  Soybean plant response rating: 4
soybean; [3]
  Plant response rating, Soybean: 7
soybean; [4]
  Plant response rating, Soybean: 0
soybean; [5]
  Soybean plant response rating: 0
soybean; [6]
  Soybean plant response rating: 0
velvetleaf; [1]
  Velvetleaf plant response rating: 2
velvetleaf; [2]
  Velvetleaf plant response rating: 4
velvetleaf; [3]
  Plant response rating, Velvetleaf: 8
velvetleaf; [4]
  Plant response rating, Velvetleaf: 0
velvetleaf; [5]
  Velvetleaf plant response rating: 0
velvetleaf; [6]
  Velvetleaf plant response rating: 6
Surinam grass; [1]
  B. signalgrass plant response rating: 0
Surinam grass; [2]
  B. signalgrass plant response rating: 0
Surinam grass; Postemergence, Rate 250 g/ha, scale 0 to 10, 0 no effect, 10 complete control
  B. signalgrass plant response rating: 0
Surinam grass; [3]
  Plant response rating, B. signalgrass: 3
Surinam grass; [4]
  Plant response rating, B. signalgrass: 2
Surinam grass; [5]
  B. signalgrass plant response rating: 8
Surinam grass; [8]
  B. signalgrass plant response rating: 8
Surinam grass; Preemergence, Rate 500 g/ha, scale 0 to 10, 0 is no effect, 10 is complete control
  B. signalgrass plant response rating: 9
pigweed; [1]
  Redroot pigweed plant response rating: 3
pigweed; [2]
  Redroot pigweed plant response rating: 4
pigweed; [3]
  Plant response rating, Redroot pigweed: 5
pigweed; [4]
  Plant response rating, Redroot pigweed: 8
pigweed; [5]
  Redroot pigweed plant response rating: 9
pigweed; [6]
  Redroot pigweed plant response rating: 10
corn; [1]
  Corn plant response rating: 0
corn; [2]
  Corn plant response rating: 0
corn; [7]
  Corn plant response rating: 0
corn; [3]
  Plant response rating, Corn: 0
corn; [4]
  Plant response rating, Corn: 0
corn; [5]
  Corn plant response rating: 0
corn; [6]
  Corn plant response rating: 5
bedstraw; Postemergence, Rate 62 g/ha, scale of 0 to 10, 0 is no effect
  Bedstraw plant response rating: 6
bedstraw; Postemergence, Rate 125 g/ha, scale 0 to 10, 0 is no effect
  Bedstraw plant response rating: 6
bedstraw; [4]
  Plant response rating, Bedstraw: 0
bedstraw; Preemergence, Rate 125 g/ha, scale 0 to 10, 0 is no effect
  Bedstraw plant response rating: 0
bedstraw; Preemergence, Rate 250 g/ha, scale 0 to 10, 0 is no effect
  Bedstraw plant response rating: 0
bedstraw; Preemergence, Rate 500 g/ha, scale 0 to 10, 0 is no effect
  Bedstraw plant response rating: 3
Wild oat; [1]
  Wild oats plant response rating: 0
Wild oat; [2]
  Wild oats plant response rating: 0
Wild oat; [3]
  Plant response rating, Wild oats: 0
Wild oat; [4]
  Plant response rating, Wild oats: 3
Wild oat; [5]
  Wild oats plant response rating: 5
Wild oat; [6]
  Wild oats plant response rating: 9
Purple nutsedge; [1]
  Nutsedge plant response rating: 0
Purple nutsedge; [2]
  Nutsedge plant response rating: 0
Purple nutsedge; [3]
  Plant response rating, Nutsedge: 0
Purple nutsedge; [4]
  Plant response rating, Nutsedge: 0
Purple nutsedge; [5]
  Nutsedge plant response rating: 0
Purple nutsedge; [6]
  Nutsedge plant response rating: 0
morningglory; [1]
  Morningglory plant response rating: 2
morningglory; [2]
  Morningglory plant response rating: 2
morningglory; [3]
  Plant response rating, Morningglory: 6
morningglory; [4]
  Plant response rating, Morningglory: 0
morningglory; [5]
  Morningglory plant response rating: 0
morningglory; [6]
  Morningglory plant response rating: 0
